According to patent US20230085307A1, “PYRIDAZINONE COMPOUND AND HERBICIDE” (NISSAN CHEMICAL CORPORATION, priority 2019, published 2023):

What was measured:
persian speedwell = experiment: Test Example 4: herbicidal effect by soil treatment (Table 19, symbol R); assay type: in vivo, Persian speedwell (Veronica persica); details: amount of applied herbicide 320 g/ha
How it was run: (§1)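 Scoring uses the grading scale of an earlier test, three weeks post-application. Treatment consists of spraying a diluted emulsion formulation across the surface of sterilized diluvial soil in which seeds are buried near 1.5 cm deep; boxes are kept in a greenhouse between 25° C. and 30° C.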

lambsquarters [1] = experiment: Test Example 4: herbicidal effect by soil treatment (Table 19, symbol O); assay type: in vivo, lambsquarters (Chenopodium album); details: amount of applied herbicide 320 g/ha
How it was run: as §1

windgrass [2] = experiment: Test Example 4: herbicidal effect by soil treatment (Table 19, symbol L); assay type: in vivo, windgrass (Apera spica-venti); details: amount of applied herbicide 320 g/ha
How it was run: as §1

barnyard grass [3] = experiment: Test Example 5: herbicidal effect by foliage application, plastic box (Table 20, symbol H); assay type: in vivo, barnyard grass (Echinochloa crus-galli); details: foliage application, AAH 320 g/ha, evaluated three weeks after application
How it was run: (§2)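 Post-emergence foliar test in sterilized diluvial soil. Compound applied as water-diluted emulsion at a predetermined rate to 14-day-old plants; evaluation at three weeks.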

lambsquarters [4] = experiment: Test Example 5: herbicidal effect by foliage application, plastic box (Table 20, symbol O); assay type: in vivo, lambsquarters (Chenopodium album); details: foliage application, AAH 320 g/ha, evaluated three weeks after application
How it was run: as §2

windgrass [5] = experiment: Test Example 5: herbicidal effect by foliage application, plastic box (Table 20, symbol L); assay type: in vivo, windgrass (Apera spica-venti); details: foliage application, AAH 320 g/ha, evaluated three weeks after application
How it was run: as §2

late watergrass = experiment: Test Example 1: herbicidal activity, application before weed generation under submerged conditions (Table 16, symbol A); assay type: in vivo, late watergrass (Echinochloa oryzicola); details: 320 g/ha applied herbicide
How it was run: (§3)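 Emulsion formulation, water-diluted to set dose, was put onto the flooded surface (4 cm depth, alluvial soil) the same day weeds were sown and 2.5-leaf rice transplanted. After 3 weeks at 25-30 °C under glass, each species was rated 0 (≤5% kill) to 5 (≥90% kill).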

chickweed = experiment: Test Example 5: herbicidal effect by foliage application, plastic box (Table 20, symbol P); assay type: in vivo, common chickweed (Stellaria media); details: foliage application, AAH 320 g/ha, evaluated three weeks after application
How it was run: as §2

Chinese sprangletop = experiment: Test Example 3: herbicidal effect by foliage application, Wagner pot (Table 18, symbol D); assay type: in vivo, chinese sprangletop (Leptochloa chinensis); details: amount of applied herbicide 320 g/ha
How it was run: (§4)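 Plants were sown in alluvial soil held under 0.1–0.5 cm standing water and grown 14 days in a greenhouse at 25–30 °C. An emulsifiable formulation, water-diluted to the set dose, was then sprayed onto the foliage, and effects were scored three weeks later using previously defined criteria.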

barnyard grass [6] = experiment: Test Example 4: herbicidal effect by soil treatment (Table 19, symbol H); assay type: in vivo, barnyard grass (Echinochloa crus-galli); details: amount of applied herbicide 320 g/ha
How it was run: as §1

blackgrass = experiment: Test Example 5: herbicidal effect by foliage application, plastic box (Table 20, symbol J); assay type: in vivo, blackgrass (Alopecurus myosuroides); details: foliage application, AAH 320 g/ha, evaluated three weeks after application
How it was run: as §2

southern crabgrass = experiment: Test Example 4: herbicidal effect by soil treatment (Table 19, symbol F); assay type: in vivo, southern crabgrass (Digitaria ciliaris); details: amount of applied herbicide 320 g/ha
How it was run: as §1

barnyard grass [7] = experiment: Test Example 3: herbicidal effect by foliage application, Wagner pot (Table 18, symbol H); assay type: in vivo, barnyard grass (Echinochloa crus-galli); details: amount of applied herbicide 320 g/ha
How it was run: as §4

redroot pigweed = experiment: Test Example 5: herbicidal effect by foliage application, plastic box (Table 20, symbol N); assay type: in vivo, redroot pigweed (Amaranthus retroflexus); details: foliage application, AAH 320 g/ha, evaluated three weeks after application
How it was run: as §2

Japanese bulrush [8] = experiment: Test Example 1: herbicidal activity, application before weed generation under submerged conditions (Table 16, symbol B); assay type: in vivo, Japanese bulrush (Schoenoplectus juncoides); details: 320 g/ha applied herbicide
How it was run: as §3

Japanese bulrush [9] = experiment: Test Example 2: herbicidal activity, application during weed generation under submerged conditions (Table 17, symbol B); assay type: in vivo, Japanese bulrush (Schoenoplectus juncoides); details: AAH 320 g/ha; application during weed generation, submerged conditions
How it was run: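 Mixed weed seedlings in alluvial soil under a 4 cm water layer, greenhouse-grown at 25–30° C. Compound given as a diluted emulsion into the floodwater at the 1–2 leaf stage; response graded after three weeks.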

Compound | herbicidal effect on R: persian speedwell (persian speedwell) | herbicidal effect on O: lambsquarters (lambsquarters [1]) | herbicidal effect on L: windgrass (windgrass [2]) | H: barnyard grass, herbicidal effect (criteria 0-5) (barnyard grass [3]) | O: lambsquarters, herbicidal effect (criteria 0-5) (lambsquarters [4]) | L: windgrass, herbicidal effect (criteria 0-5) (windgrass [5]) | Herbicidal effect on A: late watergrass (grade 0-5) (late watergrass) | P: chickweed, herbicidal effect (criteria 0-5) (chickweed) | herbicidal effect on D: Chinese sprangletop (Chinese sprangletop) | herbicidal effect on H: barnyard grass (barnyard grass [6]) | J: blackgrass, herbicidal effect (criteria 0-5) (blackgrass) | herbicidal effect on F: southern crabgrass (southern crabgrass) | herbicidal effect on H: barnyard grass (barnyard grass [7]) | N: redroot pigweed, herbicidal effect (criteria 0-5) (redroot pigweed) | Herbicidal effect on B: Japanese bulrush (grade 0-5) (Japanese bulrush [8]) | herbicidal effect rating, B: Japanese bulrush (Japanese bulrush [9])
Cc1nn(C)c(=O)c(-c2c(-c3ccc(OC(F)F)cc3)sc3ccc(F)cc23)c1OCC(=O)c1ccccc1 [2-305] | 3 (Herbicidal rate of 40% or more and less than 70%) | 3 (Herbicidal rate of 40% or more and less than 70%) | 0 (Herbicidal rate of 5% or less (almost no effect)) | 5 (Herbicidal rate of 90% or more (almost completely withered)) | 5 (Herbicidal rate of 90% or more (almost completely withered)) | 1 (Herbicidal rate of 5% or more and less than 20%) | 3 (Herbicidal rate of 40% or more and less than 70%) | 5 (Herbicidal rate of 90% or more (almost completely withered)) | 5 (Herbicidal rate of 90% or more (almost completely withered)) | 0 (Herbicidal rate of 5% or less (almost no effect)) | 0 (Herbicidal rate of 5% or less (almost no effect)) | 0 (Herbicidal rate of 5% or less (almost no effect)) | 5 (Herbicidal rate of 90% or more (almost completely withered)) | 5 (Herbicidal rate of 90% or more (almost completely withered)) | 5 (Herbicidal rate of 90% or more (almost completely withered)) | 3 (Herbicidal rate of 40% or more and less than 70%)
CC(=O)c1ccc(-c2sc3ccc(F)cc3c2-c2c(O)c(C)nn(C)c2=O)cc1 [2-339] | 4 (Herbicidal rate of 70% or more and less than 90%) | 4 (Herbicidal rate of 70% or more and less than 90%) | 2 (Herbicidal rate of 20% or more and less than 40%) | 3 (Herbicidal rate of 40% or more and less than 70%) | 4 (Herbicidal rate of 70% or more and less than 90%) | 5 (Herbicidal rate of 90% or more (almost completely withered)) | 4 (Herbicidal rate of 70% or more and less than 90%) | 5 (Herbicidal rate of 90% or more (almost completely withered)) | 4 (Herbicidal rate of 70% or more and less than 90%) | 0 (Herbicidal rate of 5% or less (almost no effect)) | 1 (Herbicidal rate of 5% or more and less than 20%) | 0 (Herbicidal rate of 5% or less (almost no effect)) | 5 (Herbicidal rate of 90% or more (almost completely withered)) | 5 (Herbicidal rate of 90% or more (almost completely withered)) | 5 (Herbicidal rate of 90% or more (almost completely withered)) | 3 (Herbicidal rate of 40% or more and less than 70%)
Cc1nn(C)c(=O)c(-c2c(-c3ccc([N+](=O)[O-])cc3)sc3ccc(F)cc23)c1O [2-341] | 5 (Herbicidal rate of 90% or more (almost completely withered)) | 4 (Herbicidal rate of 70% or more and less than 90%) | 1 (Herbicidal rate of 5% or more and less than 20%) | 4 (Herbicidal rate of 70% or more and less than 90%) | 5 (Herbicidal rate of 90% or more (almost completely withered)) | 4 (Herbicidal rate of 70% or more and less than 90%) | 3 (Herbicidal rate of 40% or more and less than 70%) | 5 (Herbicidal rate of 90% or more (almost completely withered)) | 3 (Herbicidal rate of 40% or more and less than 70%) | 3 (Herbicidal rate of 40% or more and less than 70%) | 4 (Herbicidal rate of 70% or more and less than 90%) | 5 (Herbicidal rate of 90% or more (almost completely withered)) | 4 (Herbicidal rate of 70% or more and less than 90%) | 5 (Herbicidal rate of 90% or more (almost completely withered)) | 4 (Herbicidal rate of 70% or more and less than 90%) | 3 (Herbicidal rate of 40% or more and less than 70%)
